Laboratory results taken from ChEMBL document CHEMBL1201862, “PubChem BioAssay data set” (2004).
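Five concentrations, 48 hours, 96-well plates. GI50 = concentration required for 50% inhibition of growth.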 Calls of active or inactive are those of the source. No stated cut-off is given here; in the data, active = GI50 up to about 1.1 µM and inactive = higher.

Tests used:
Experiment in all cases: NCI tumour cell line growth inhibition, 48 h
A549 = system: A549
CAKI-1 = system: CAKI-1
COLO 205 = system: COLO 205
DU-145 = system: DU-145
HCC 2998 = system: HCC 2998
HCT-116 = system: HCT-116
LOX IMVI = system: LOX IMVI
MCF7 = system: MCF7
MDA-MB-435 = system: MDA-MB-435
MOLT-4 = system: MOLT-4
NCI/ADR-RES = system: NCI/ADR-RES
OVCAR-4 = system: OVCAR-4
OVCAR-5 = system: OVCAR-5
OVCAR-8 = system: OVCAR-8
RPMI-8226 = system: RPMI-8226
SK-MEL-2 = system: SK-MEL-2
SK-MEL-5 = system: SK-MEL-5
SR = system: SR
UACC-257 = system: UACC-257
UACC-62 = system: UACC-62

Measured: GI50

CN(O)C(=O)c1cccc(Cl)c1
inactive: A549 > 100 µM | CAKI-1 > 100 µM | COLO 205 > 100 µM | DU-145 > 100 µM | HCC 2998 > 100 µM | HCT-116 > 100 µM | LOX IMVI > 100 µM | MCF7 > 100 µM | MDA-MB-435 > 100 µM | MOLT-4 51.2 µM | NCI/ADR-RES > 100 µM | OVCAR-4 > 100 µM | OVCAR-5 > 100 µM | OVCAR-8 > 100 µM | RPMI-8226 > 100 µM | SK-MEL-2 > 100 µM | SK-MEL-5 > 100 µM | SR 32.7 µM | UACC-257 > 100 µM | UACC-62 > 100 µM

O=C(N/N=C/c1ccc(Cl)cc1)c1ccccc1Nc1ccccc1C(=O)N/N=C/c1ccc(Cl)cc1
inactive: A549 88.7 µM | CAKI-1 > 100 µM | COLO 205 > 100 µM | DU-145 > 100 µM | HCC 2998 > 100 µM | HCT-116 > 100 µM | LOX IMVI > 100 µM | MCF7 > 100 µM | MDA-MB-435 > 100 µM | MOLT-4 > 100 µM | NCI/ADR-RES > 100 µM | OVCAR-4 > 100 µM | OVCAR-5 38.6 µM | OVCAR-8 > 100 µM | RPMI-8226 > 100 µM | SK-MEL-2 > 100 µM | SK-MEL-5 > 100 µM | SR > 100 µM | UACC-257 > 100 µM | UACC-62 > 100 µM

O=c1oc2ccccc2cc1P(=O)(O)O
inactive: A549 > 100 µM | CAKI-1 > 100 µM | COLO 205 > 100 µM | DU-145 > 100 µM | HCC 2998 > 100 µM | HCT-116 > 100 µM | LOX IMVI > 100 µM | MCF7 > 100 µM | MDA-MB-435 > 100 µM | MOLT-4 > 100 µM | NCI/ADR-RES > 100 µM | OVCAR-4 > 100 µM | OVCAR-5 > 100 µM | OVCAR-8 > 100 µM | RPMI-8226 > 100 µM | SK-MEL-2 > 100 µM | SK-MEL-5 > 100 µM | SR > 100 µM | UACC-257 > 100 µM | UACC-62 > 100 µM

COc1cc(NS(C)(=O)=O)ccc1NCc1c[nH]c2ccc3ncccc3c12
inactive: A549 27.8 µM | CAKI-1 22.4 µM | COLO 205 15.6 µM | DU-145 23.9 µM | HCC 2998 18.9 µM | HCT-116 21.2 µM | LOX IMVI 25.2 µM | MCF7 19.4 µM | MDA-MB-435 19.3 µM | MOLT-4 5.83 µM | NCI/ADR-RES 20.3 µM | OVCAR-4 20.7 µM | OVCAR-5 20.9 µM | OVCAR-8 25 µM | RPMI-8226 11.3 µM | SK-MEL-2 19.5 µM | SK-MEL-5 12.4 µM | SR 2.75 µM | UACC-257 17 µM | UACC-62 17.3 µM

O=C1CS[C@@](CC(c2ccc(Cl)cc2)c2ccc(Cl)cc2)(c2ccc(Cl)cc2)N1
inactive: A549 5.97 µM | CAKI-1 19.2 µM | COLO 205 4.74 µM | DU-145 39.1 µM | HCC 2998 19.5 µM | HCT-116 9.59 µM | LOX IMVI 8.53 µM | MCF7 4.18 µM | MDA-MB-435 14 µM | MOLT-4 3.32 µM | NCI/ADR-RES 8.17 µM | OVCAR-4 6.82 µM | OVCAR-5 > 100 µM | OVCAR-8 14.6 µM | RPMI-8226 5.05 µM | SK-MEL-2 19.3 µM | SK-MEL-5 12.6 µM | SR 4.24 µM | UACC-257 14.3 µM | UACC-62 12.5 µM
